Results as given in patent US5707798A, “Identification of ligands by selective amplification of cells transfected with receptors” (priority 1994, dated 1998).

Legend:
[1] = molecular target: T1, EP3 prostanoid receptor (Homo sapiens, UniProt P43115); assay type: cell-based; conditions: EP3, Table 2; read-out: Ligand EC50
T1 construct: expressed in transfected cells; host or cells: NIH 3T3 (mouse fibroblasts, ATCC CRL 1658)
T1 sequence (P43115 1-390): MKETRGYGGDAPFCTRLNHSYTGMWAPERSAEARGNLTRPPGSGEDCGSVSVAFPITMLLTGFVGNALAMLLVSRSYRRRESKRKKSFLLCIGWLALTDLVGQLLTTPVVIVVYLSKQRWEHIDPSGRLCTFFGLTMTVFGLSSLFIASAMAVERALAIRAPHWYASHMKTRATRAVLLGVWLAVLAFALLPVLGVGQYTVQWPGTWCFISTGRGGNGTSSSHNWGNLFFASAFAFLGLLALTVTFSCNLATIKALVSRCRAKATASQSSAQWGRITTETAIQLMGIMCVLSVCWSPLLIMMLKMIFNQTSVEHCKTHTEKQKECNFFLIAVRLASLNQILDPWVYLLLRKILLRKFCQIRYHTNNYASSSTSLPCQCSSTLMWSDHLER

[2] = system: certain alpha adrenergic receptors; conditions: cited from earlier work
[3] = molecular target: T2, alpha 2 C4 adrenergic receptor (Homo sapiens, UniProt P18825); assay type: cell-based; conditions: α2-C4, Table 3; relative to other ligands at the receptor
T2 construct: expressed in transfected cells; host or cells: NIH 3T3 (mouse fibroblasts)
T2 sequence (P18825 1-462): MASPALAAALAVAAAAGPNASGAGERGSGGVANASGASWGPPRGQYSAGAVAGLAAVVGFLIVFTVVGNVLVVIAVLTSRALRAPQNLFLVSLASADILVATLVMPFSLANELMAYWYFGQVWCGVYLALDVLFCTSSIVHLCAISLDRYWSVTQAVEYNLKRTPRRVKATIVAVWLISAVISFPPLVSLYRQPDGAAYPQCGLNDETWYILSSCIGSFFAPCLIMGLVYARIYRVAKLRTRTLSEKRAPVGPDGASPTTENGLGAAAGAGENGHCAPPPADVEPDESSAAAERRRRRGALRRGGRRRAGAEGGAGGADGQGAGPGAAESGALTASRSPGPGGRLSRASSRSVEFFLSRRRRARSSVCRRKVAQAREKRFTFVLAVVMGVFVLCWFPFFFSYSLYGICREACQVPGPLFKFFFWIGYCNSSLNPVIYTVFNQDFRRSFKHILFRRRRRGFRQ

[4] = system: Muscarinic acetylcholine receptors that stimulate phospholipase c (m1, m3, m5); conditions: cited from earlier work
[5] = molecular target: T3, m2 muscarinic receptor (Homo sapiens, UniProt P08172); test: cell-based; assay type: cell-based
T3 construct: expressed in transfected cells; host or cells: NIH 3T3 (mouse fibroblasts)
T3 sequence (P08172 1-466): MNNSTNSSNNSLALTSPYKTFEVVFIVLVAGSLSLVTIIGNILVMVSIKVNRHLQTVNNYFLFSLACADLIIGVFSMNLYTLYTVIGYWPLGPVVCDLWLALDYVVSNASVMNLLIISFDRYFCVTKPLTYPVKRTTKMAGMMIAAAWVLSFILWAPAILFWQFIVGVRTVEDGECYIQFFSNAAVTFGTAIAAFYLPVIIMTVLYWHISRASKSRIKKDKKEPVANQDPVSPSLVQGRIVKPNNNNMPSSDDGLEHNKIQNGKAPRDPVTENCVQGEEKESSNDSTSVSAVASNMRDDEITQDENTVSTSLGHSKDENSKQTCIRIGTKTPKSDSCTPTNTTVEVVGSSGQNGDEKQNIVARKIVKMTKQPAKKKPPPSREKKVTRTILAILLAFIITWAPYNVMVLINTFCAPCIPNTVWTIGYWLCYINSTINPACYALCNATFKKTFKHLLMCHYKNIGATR

[6] = molecular target: T4, m5 muscarinic receptor (Homo sapiens, UniProt P08912); assay type: cell-based
T4 construct: expressed in transfected cells; host or cells: NIH 3T3 (mouse fibroblasts)
T4 sequence (P08912 1-532): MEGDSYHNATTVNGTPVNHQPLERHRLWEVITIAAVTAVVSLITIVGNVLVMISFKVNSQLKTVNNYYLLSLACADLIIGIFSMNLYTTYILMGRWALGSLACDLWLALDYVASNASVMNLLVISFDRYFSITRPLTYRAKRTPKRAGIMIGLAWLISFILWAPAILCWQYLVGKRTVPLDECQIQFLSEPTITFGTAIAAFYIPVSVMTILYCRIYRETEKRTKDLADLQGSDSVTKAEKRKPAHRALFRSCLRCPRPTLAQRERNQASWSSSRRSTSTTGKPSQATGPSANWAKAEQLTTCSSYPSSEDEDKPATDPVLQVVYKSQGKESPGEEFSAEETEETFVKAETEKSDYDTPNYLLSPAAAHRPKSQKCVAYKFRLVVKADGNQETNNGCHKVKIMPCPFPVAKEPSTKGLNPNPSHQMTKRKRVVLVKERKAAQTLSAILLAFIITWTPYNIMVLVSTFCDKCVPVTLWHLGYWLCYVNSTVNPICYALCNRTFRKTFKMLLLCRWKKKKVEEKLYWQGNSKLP

[7] = molecular target: T3, m2 muscarinic receptor; test: β-galactosidase levels, m2 receptor in the absence of expressed G-protein; assay type: cell-based
[8] = system: NIH 3T3 cells; test: Amplification response in the absence of the indicated target receptor; assay type: cell-based, mouse; conditions: absence of the ligand's target receptor
Method: FIG. 16 illustrates the maximal ligand-induced responses of the indicated receptors, as assayed using cotransfected cultures using a Multiple Receptor Format similar to that described in FIG. 11. […] Cells were incubated in wells of a 96 well plate for 4 days with each ligand. Maximal responses were calculated by fitting the data to a model of a single mass-action site.

[9] = molecular target: T4, m5 muscarinic receptor; test: Focus induction in NIH 3T3 cells transfected with m5 DNA; assay type: cell-based; conditions: low concentrations
[10] = molecular target: T4, m5 muscarinic receptor; assay type: cell-based; remark: listed apart in the source
[11] = molecular target: T5, m4 muscarinic receptor (Homo sapiens, UniProt P08173); test: cell-based
T5 sequence (P08173 1-479): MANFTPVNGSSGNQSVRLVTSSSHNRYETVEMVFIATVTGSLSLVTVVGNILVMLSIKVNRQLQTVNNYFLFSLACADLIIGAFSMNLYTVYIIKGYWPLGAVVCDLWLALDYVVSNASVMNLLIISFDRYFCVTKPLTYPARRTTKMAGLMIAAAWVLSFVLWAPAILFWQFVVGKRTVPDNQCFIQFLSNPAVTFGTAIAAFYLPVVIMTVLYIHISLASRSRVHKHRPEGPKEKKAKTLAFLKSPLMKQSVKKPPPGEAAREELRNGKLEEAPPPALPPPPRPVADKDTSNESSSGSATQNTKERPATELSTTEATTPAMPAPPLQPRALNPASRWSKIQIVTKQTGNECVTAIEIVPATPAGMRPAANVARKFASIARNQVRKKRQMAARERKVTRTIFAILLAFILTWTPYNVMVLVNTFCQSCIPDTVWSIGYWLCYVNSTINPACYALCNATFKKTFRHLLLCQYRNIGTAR

[12] = molecular target: T3, m2 muscarinic receptor; test: cell-based
[13] = molecular target: T6, m1 muscarinic receptor (Homo sapiens, UniProt P11229); test: cell-based
T6 sequence (P11229 1-460): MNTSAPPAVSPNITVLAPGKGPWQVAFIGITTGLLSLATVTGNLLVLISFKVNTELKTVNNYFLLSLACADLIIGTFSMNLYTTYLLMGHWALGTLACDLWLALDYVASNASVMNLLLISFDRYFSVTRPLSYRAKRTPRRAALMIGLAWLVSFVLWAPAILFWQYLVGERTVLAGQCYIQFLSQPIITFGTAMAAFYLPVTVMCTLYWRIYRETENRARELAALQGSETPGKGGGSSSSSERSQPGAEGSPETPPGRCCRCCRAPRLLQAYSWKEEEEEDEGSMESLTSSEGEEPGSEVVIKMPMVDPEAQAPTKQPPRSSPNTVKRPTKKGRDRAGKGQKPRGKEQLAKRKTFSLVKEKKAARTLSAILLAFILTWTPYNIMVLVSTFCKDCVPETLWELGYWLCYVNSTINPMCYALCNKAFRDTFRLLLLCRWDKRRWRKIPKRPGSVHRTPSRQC

[14] = molecular target: m3 muscarinic receptor (Homo sapiens, UniProt P20309); test: cell-based
[15] = molecular target: trk A receptor; conditions: Table 2
[16] = molecular target: trk C receptor; design: Rmax: key to the marks not given beside the values

Sequence of m3 muscarinic receptor (P20309 whole entry): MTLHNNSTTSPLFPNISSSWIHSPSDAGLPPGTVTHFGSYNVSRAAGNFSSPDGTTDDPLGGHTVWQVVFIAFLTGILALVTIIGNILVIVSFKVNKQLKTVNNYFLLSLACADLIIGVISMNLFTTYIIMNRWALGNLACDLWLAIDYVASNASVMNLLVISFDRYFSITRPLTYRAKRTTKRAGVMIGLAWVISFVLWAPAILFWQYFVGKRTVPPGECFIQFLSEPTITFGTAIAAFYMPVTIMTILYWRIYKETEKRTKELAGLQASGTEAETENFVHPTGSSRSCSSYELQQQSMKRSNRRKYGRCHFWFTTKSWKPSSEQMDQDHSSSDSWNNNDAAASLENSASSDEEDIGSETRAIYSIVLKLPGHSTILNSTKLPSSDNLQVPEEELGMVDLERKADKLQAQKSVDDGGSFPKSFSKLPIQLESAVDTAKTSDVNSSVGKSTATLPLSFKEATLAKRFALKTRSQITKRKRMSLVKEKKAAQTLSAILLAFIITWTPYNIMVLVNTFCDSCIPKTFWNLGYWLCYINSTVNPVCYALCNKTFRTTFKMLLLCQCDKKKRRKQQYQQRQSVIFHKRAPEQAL

O=C(O)CCCCCC[C@H]1C(=O)CC[C@@H]1/C=C/[C@@H](O)COc1ccccc1 [MB28767] showed an EC50 [1] of 270 ± 190 nM.
In the case of NC[C@H](O)c1ccc(O)c(O)c1 [Norepinephrine], the growth stimulation [2] is given as “stimulates” and the “Max Response” value [3] is given as “+”.
In the case of CN1[C@@H]2CC[C@H]1C[C@@H](OC(=O)C(CO)c1ccccc1)C2 (stereo partly shown) [atropine], the “block of agonist-stimulated phospholipase c, mitogenesis and foci” value [4] is given as “blocked”.
With C[N+](C)(C)CCOC(N)=O [carbachol] the “time to plateau of β-galactosidase induction” value ([5]; m2/q-i5) was “about five”, the “induction of β-galactosidase levels” value ([5]; m2/q-i5, time-course) was “significantly induce β-galactosidase levels” and the “time to plateau of β-galactosidase induction” value ([6]; m5) was “about five”. The “induction of β-galactosidase levels” value ([6]; m5, time-course) was “significantly induce β-galactosidase levels”, the “effect on β-galactosidase levels” value [7] was “no effect on β-galactosidase levels” and the induction of responses [8] was “unable to induce responses”. For the same compound, the focus response [9] was “robust ligand-dependent responses”.
Work on O[Si](CCCN1CCCCC1)(c1ccc(F)cc1)C1CCCCC1 (stereo not shown) [p-F-HHSiD] yielded a Ki [10] of 79.4 nM, a Ki [11] of 50.1 nM and a Ki [12] of 501 nM. For the same compound, the Ki [13] was 251 nM and the Ki [14] was 31.6 nM.
For NT3: related neutrotrophic factor NT3, the “Ligand EC50” value [15] was > 1 µg/mL, the “Ligand EC50” value ([16]; Table 2) was 0.0024 ± 0.0011 µg/mL and the Rmax ([16]; relative to other clones) was “++++”.
